Laboratory results from patent publication US20210045385A1, “PYRIDAZINONE-SUBSTITUTED KETOXIMES AS HERBICIDES” (FMC Corporation, priority 2018, published 2021).

Key:
Type in all cases: in vivo
[1] = test system: sedge, umbrella (small-flower umbrella sedge, Cyperus difformis); experiment: Test B flooded paddy test, visual plant response rating; settings: 250 g ai/ha, Flood, applied to paddy water, 2-leaf stage, evaluated after 13 to 15 days
In short: (§1)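 Compounds added straight into paddy water of pots flooded to 3 cm, with 2-leaf-stage plants of the four species; water level held throughout.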

[2] = test system: barnyardgrass (Echinochloa crus-galli); experiment: as above; settings: 250 g ai/ha, Flood, applied to paddy water, 2-leaf stage, evaluated after 13 to 15 days
In short: as §1

[3] = test system: rice (Oryza sativa); experiment: as above; settings: 250 g ai/ha, Flood, applied to paddy water, 2-leaf stage, evaluated after 13 to 15 days
In short: as §1

[4] = test system: ducksalad (Heteranhera limosa); experiment: as above; settings: 250 g ai/ha, Flood, applied to paddy water, 2-leaf stage, evaluated after 13 to 15 days
In short: as §1

[5] = test system: galium (catchweed bedstraw, Galium aparine); experiment: Test A postemergence, visual plant response rating; settings: for Galium plant response rating (0 to 100 scale): 500 g ai/ha, postemergence, 0 is no effect, 100 is complete control; for Galium plant response rating: Postemergence, 125 g ai/ha, 0 to 100 scale (0 no effect, 100 complete control)
In short: (§2)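 Ratings 0–100 (100 = complete control), visual, vs untreated controls at ~10 days. Application pre- or postemergence; solvent mixture with surfactant; loam/sand medium.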

[6] = test system: pigweed (Amaranthus retroflexus); experiment: Test A postemergence, visual plant response rating; settings: for Pigweed plant response rating (0 to 100 scale): 500 g ai/ha, postemergence, 0 is no effect, 100 is complete control; for Pigweed plant response rating: Postemergence, 125 g ai/ha, 0 to 100 scale (0 no effect, 100 complete control)
In short: as §2

[7] = test system: Italian ryegrass (Lolium multiflorum); experiment: Test A postemergence, visual plant response rating; settings: for Ryegrass, Italian plant response rating (0 to 100 scale): 500 g ai/ha, postemergence, 0 is no effect, 100 is complete control; for Ryegrass, Italian plant response rating: Postemergence, 125 g ai/ha, 0 to 100 scale (0 no effect, 100 complete control)
In short: as §2

[8] = test system: blackgrass (Alopecurus myosuroides); experiment: Test A postemergence, visual plant response rating; settings: for Blackgrass plant response rating (0 to 100 scale): 500 g ai/ha, postemergence, 0 is no effect, 100 is complete control; for Blackgrass plant response rating: Postemergence, 125 g ai/ha, 0 to 100 scale (0 no effect, 100 complete control)
In short: as §2

[9] = test system: corn (Zea mays); experiment: Test A postemergence, visual plant response rating; settings: for Corn plant response rating (0 to 100 scale): 500 g ai/ha, postemergence, 0 is no effect, 100 is complete control; for Corn plant response rating: Postemergence, 125 g ai/ha, 0 to 100 scale (0 no effect, 100 complete control)
In short: as §2

[10] = test system: kochia (Kochia scoparia); experiment: Test A postemergence, visual plant response rating; settings: for Kochia plant response rating (0 to 100 scale): 500 g ai/ha, postemergence, 0 is no effect, 100 is complete control; for Kochia plant response rating: Postemergence, 125 g ai/ha, 0 to 100 scale (0 no effect, 100 complete control)
In short: as §2

[11] = test system: barnyardgrass (Echinochloa crus-galli); experiment: Test A postemergence, visual plant response rating; settings: for Barnyardgrass plant response rating (0 to 100 scale): 500 g ai/ha, postemergence, 0 is no effect, 100 is complete control; for Barnyardgrass plant response rating: Postemergence, 125 g ai/ha, 0 to 100 scale (0 no effect, 100 complete control)
In short: as §2

[12] = test system: ragweed (common ragweed, Ambrosia elatior); experiment: Test A postemergence, visual plant response rating; settings: for Ragweed plant response rating (0 to 100 scale): 500 g ai/ha, postemergence, 0 is no effect, 100 is complete control; for Ragweed plant response rating: Postemergence, 125 g ai/ha, 0 to 100 scale (0 no effect, 100 complete control)
In short: as §2

[13] = test system: foxtail, giant (giant foxtail, Setaria faberii); experiment: Test A postemergence, visual plant response rating; settings: for Foxtail, Giant plant response rating (0 to 100 scale): 500 g ai/ha, postemergence, 0 is no effect, 100 is complete control; for Foxtail, Giant plant response rating: Postemergence, 125 g ai/ha, 0 to 100 scale (0 no effect, 100 complete control)
In short: as §2

[14] = test system: wheat (Triticum aestivum); experiment: Test A postemergence, visual plant response rating; settings: for Wheat plant response rating (0 to 100 scale): 500 g ai/ha, postemergence, 0 is no effect, 100 is complete control; for Wheat plant response rating: Postemergence, 125 g ai/ha, 0 to 100 scale (0 no effect, 100 complete control)
In short: as §2

[15] = test system: pigweed (Amaranthus retroflexus); experiment: Test A preemergence, visual plant response rating; settings: for Pigweed plant response rating: 125 g ai/ha, preemergence, 0 to 100 scale, 0 no effect, 100 complete control; for Pigweed plant response rating (0 to 100 scale): 500 g ai/ha Preemergence, approx. 10 days
In short: as §2

[16] = test system: Italian ryegrass (Lolium multiflorum); experiment: Test A preemergence, visual plant response rating; settings: for Ryegrass, Italian plant response rating: 125 g ai/ha, preemergence, 0 to 100 scale, 0 no effect, 100 complete control; for Ryegrass, Italian plant response rating (0 to 100 scale): 500 g ai/ha Preemergence, approx. 10 days
In short: as §2

[17] = test system: kochia (Kochia scoparia); experiment: Test A preemergence, visual plant response rating; settings: for Kochia plant response rating: 125 g ai/ha, preemergence, 0 to 100 scale, 0 no effect, 100 complete control; for Kochia plant response rating (0 to 100 scale): 500 g ai/ha Preemergence, approx. 10 days
In short: as §2

[18] = test system: barnyardgrass (Echinochloa crus-galli); experiment: Test A preemergence, visual plant response rating; settings: for Barnyardgrass plant response rating: 125 g ai/ha, preemergence, 0 to 100 scale, 0 no effect, 100 complete control; for Barnyardgrass plant response rating (0 to 100 scale): 500 g ai/ha Preemergence, approx. 10 days
In short: as §2

[19] = test system: ragweed (common ragweed, Ambrosia elatior); experiment: Test A preemergence, visual plant response rating; settings: for Ragweed plant response rating: 125 g ai/ha, preemergence, 0 to 100 scale, 0 no effect, 100 complete control; for Ragweed plant response rating (0 to 100 scale): 500 g ai/ha Preemergence, approx. 10 days
In short: as §2

[20] = test system: foxtail, giant (giant foxtail, Setaria faberii); experiment: Test A preemergence, visual plant response rating; settings: for Foxtail, Giant plant response rating: 125 g ai/ha, preemergence, 0 to 100 scale, 0 no effect, 100 complete control; for Foxtail, Giant plant response rating (0 to 100 scale): 500 g ai/ha Preemergence, approx. 10 days
In short: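 Compared with untreated controls, treated plants received a visual injury score on a 0–100 scale around 10 days after application. The compound, in a non-phytotoxic solvent with surfactant, was given as a preemergence soil spray or postemergence at the one- to two-leaf stage.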

| Structure (SMILES) | Plant response rating, Sedge, Umbrella (0 to 100 scale, 0 is no effect, 100 is complete control) [1] | Plant response rating, Barnyardgrass (0 to 100 scale, 0 is no effect, 100 is complete control) [2] | Plant response rating, Rice (0 to 100 scale, 0 is no effect, 100 is complete control) [3] | Plant response rating, Ducksalad (0 to 100 scale, 0 is no effect, 100 is complete control) [4] | Galium plant response rating (0 to 100 scale) [5] | Galium plant response rating [5] | Pigweed plant response rating (0 to 100 scale) [6] | Pigweed plant response rating [6] | Ryegrass, Italian plant response rating (0 to 100 scale) [7] | Ryegrass, Italian plant response rating [7] | Blackgrass plant response rating (0 to 100 scale) [8] | Blackgrass plant response rating [8] | Corn plant response rating (0 to 100 scale) [9] | Corn plant response rating [9] | Kochia plant response rating (0 to 100 scale) [10] | Kochia plant response rating [10] | Barnyardgrass plant response rating (0 to 100 scale) [11] | Barnyardgrass plant response rating [11] | Ragweed plant response rating (0 to 100 scale) [12] | Ragweed plant response rating [12] | other results |
| --- | --- | --- | --- | --- | --- | --- | --- | --- | --- | --- | --- | --- | --- | --- | --- | --- | --- | --- | --- | --- | --- |
| CON=C(c1c(O)c(C)nn(C)c1=O)c1cccc2ccc(Cl)cc12 [Compound 111] | 0 | 0 | 0 | 0 | 90 | 80 | 90 | 60 | 90 | 70 | 100 | 80 | 30 | 20 | 60 | 40 | 80 | 50 | 80 | 80 | Foxtail, Giant plant response rating (0 to 100 scale) [13]: 70; Foxtail, Giant plant response rating [13]: 60; Wheat plant response rating (0 to 100 scale) [14]: 60; Wheat plant response rating [14]: 0; Pigweed plant response rating [15]: 100; Pigweed plant response rating (0 to 100 scale) [15]: 100; Ryegrass, Italian plant response rating [16]: 30; Ryegrass, Italian plant response rating (0 to 100 scale) [16]: 70; Kochia plant response rating [17]: 20; Kochia plant response rating (0 to 100 scale) [17]: 100; Barnyardgrass plant response rating [18]: 60; Barnyardgrass plant response rating (0 to 100 scale) [18]: 70; Ragweed plant response rating [19]: 70; Ragweed plant response rating (0 to 100 scale) [19]: 100; Foxtail, Giant plant response rating [20]: 50; Foxtail, Giant plant response rating (0 to 100 scale) [20]: 90 |
| CON=C(c1ccccc1C1CC1)c1c(O)c(C)nn(C)c1=O [Compound 105] | 0 | 0 | 0 | 0 | 90 | 90 | 70 | 60 | 90 | 90 | 90 | 80 | 30 | 10 | 80 | 70 | 80 | 40 | 90 | 90 | Foxtail, Giant plant response rating (0 to 100 scale) [13]: 80; Foxtail, Giant plant response rating [13]: 70; Wheat plant response rating (0 to 100 scale) [14]: 80; Wheat plant response rating [14]: 60; Pigweed plant response rating [15]: 70; Pigweed plant response rating (0 to 100 scale) [15]: 70; Ryegrass, Italian plant response rating [16]: 90; Ryegrass, Italian plant response rating (0 to 100 scale) [16]: 100; Kochia plant response rating [17]: 10; Kochia plant response rating (0 to 100 scale) [17]: 70; Barnyardgrass plant response rating [18]: 60; Barnyardgrass plant response rating (0 to 100 scale) [18]: 80; Ragweed plant response rating [19]: 50; Ragweed plant response rating (0 to 100 scale) [19]: 60; Foxtail, Giant plant response rating [20]: 60; Foxtail, Giant plant response rating (0 to 100 scale) [20]: 90 |
| CON=C(c1c(O)c(C)nn(C)c1=O)c1csc2ccccc12 (single isomer, unassigned) [Compound 46] | 0 | 0 | 0 | 0 | 60 | 30 | 20 | 10 | 10 | 10 | 0 | 0 | 0 | 0 | 0 | 0 | 0 | 0 | 70 | 40 | Foxtail, Giant plant response rating (0 to 100 scale) [13]: 0; Foxtail, Giant plant response rating [13]: 0; Wheat plant response rating (0 to 100 scale) [14]: 0; Wheat plant response rating [14]: 0; Pigweed plant response rating [15]: 0; Pigweed plant response rating (0 to 100 scale) [15]: 10; Ryegrass, Italian plant response rating [16]: 0; Ryegrass, Italian plant response rating (0 to 100 scale) [16]: 0; Kochia plant response rating [17]: 0; Kochia plant response rating (0 to 100 scale) [17]: 30; Barnyardgrass plant response rating [18]: 0; Barnyardgrass plant response rating (0 to 100 scale) [18]: 0; Ragweed plant response rating [19]: 20; Ragweed plant response rating (0 to 100 scale) [19]: 50; Foxtail, Giant plant response rating [20]: 0; Foxtail, Giant plant response rating (0 to 100 scale) [20]: 0 |
